{"source": "patent US8637702B2", "about": "“Derivatives of N-hydroxybenzamide for treating HIV infections” (Italfarmaco S.p.A., priority 2009, dated 2014)", "key": {"[1]": {"biological_target": "HDAC9 (Homo sapiens, UniProt Q9UKV0)", "sequence (Q9UKV0 whole entry, canonical isoform)": "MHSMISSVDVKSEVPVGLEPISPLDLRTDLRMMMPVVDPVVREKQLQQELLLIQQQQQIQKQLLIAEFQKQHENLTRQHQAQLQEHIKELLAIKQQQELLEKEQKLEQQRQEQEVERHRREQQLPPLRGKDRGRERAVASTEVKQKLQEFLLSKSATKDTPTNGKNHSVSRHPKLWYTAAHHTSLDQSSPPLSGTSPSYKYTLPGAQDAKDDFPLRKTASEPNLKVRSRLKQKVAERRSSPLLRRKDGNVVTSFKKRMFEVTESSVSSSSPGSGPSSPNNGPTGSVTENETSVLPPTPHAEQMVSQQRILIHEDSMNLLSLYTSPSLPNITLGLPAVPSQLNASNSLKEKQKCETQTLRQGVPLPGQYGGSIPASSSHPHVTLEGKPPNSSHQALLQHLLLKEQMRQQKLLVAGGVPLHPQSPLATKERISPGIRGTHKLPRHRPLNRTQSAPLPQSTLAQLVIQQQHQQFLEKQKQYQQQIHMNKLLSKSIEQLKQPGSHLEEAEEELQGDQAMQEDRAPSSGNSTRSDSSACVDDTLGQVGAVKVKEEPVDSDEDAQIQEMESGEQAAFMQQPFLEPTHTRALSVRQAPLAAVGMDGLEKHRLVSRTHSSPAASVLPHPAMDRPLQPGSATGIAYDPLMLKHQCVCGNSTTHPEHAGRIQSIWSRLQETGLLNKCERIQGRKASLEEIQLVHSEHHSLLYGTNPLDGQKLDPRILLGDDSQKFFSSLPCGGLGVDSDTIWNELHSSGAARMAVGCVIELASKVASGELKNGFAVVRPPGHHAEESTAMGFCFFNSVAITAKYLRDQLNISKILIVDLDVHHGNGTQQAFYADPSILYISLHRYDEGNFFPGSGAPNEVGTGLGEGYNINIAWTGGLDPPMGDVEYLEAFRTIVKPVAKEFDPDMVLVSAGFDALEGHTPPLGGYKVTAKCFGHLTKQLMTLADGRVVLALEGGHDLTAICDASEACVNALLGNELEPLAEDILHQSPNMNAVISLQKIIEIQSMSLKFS", "experiment": "Inhibition of histone deacetylase isoforms, HDAC9", "quoted_text": "(§1) Recombinant human enzymes were acquired from BPS Biosciences (CA, USA). Isoforms of Class I HDAC1, 2, 3; HDAC6, 10 of Class IIb and Class IV HDAC11 were tested using the Fluor-de-Lys fluorogenic synthetic substrate (Enzo Life Sciences, Plymouth Meeting, Pa.). […] Each inhibitor was dissolved in DMSO and then further diluted in an assay buffer. […] The assays were performed by pre-incubating each enzyme with the inhibitors for 15 minutes at 37° C. The reaction was started by adding the substrate at 37° C. and allowed to proceed for 60 minutes. The fluorescent signal was generated by adding 50 μL of a twice concentrated developer solution 2 (Enzo) containing trichostatin A 4 μM."}, "[2]": {"biological_target": "T1, HDAC10 (Homo sapiens, UniProt Q969S8)", "T1 sequence (Q969S8 1-669)": "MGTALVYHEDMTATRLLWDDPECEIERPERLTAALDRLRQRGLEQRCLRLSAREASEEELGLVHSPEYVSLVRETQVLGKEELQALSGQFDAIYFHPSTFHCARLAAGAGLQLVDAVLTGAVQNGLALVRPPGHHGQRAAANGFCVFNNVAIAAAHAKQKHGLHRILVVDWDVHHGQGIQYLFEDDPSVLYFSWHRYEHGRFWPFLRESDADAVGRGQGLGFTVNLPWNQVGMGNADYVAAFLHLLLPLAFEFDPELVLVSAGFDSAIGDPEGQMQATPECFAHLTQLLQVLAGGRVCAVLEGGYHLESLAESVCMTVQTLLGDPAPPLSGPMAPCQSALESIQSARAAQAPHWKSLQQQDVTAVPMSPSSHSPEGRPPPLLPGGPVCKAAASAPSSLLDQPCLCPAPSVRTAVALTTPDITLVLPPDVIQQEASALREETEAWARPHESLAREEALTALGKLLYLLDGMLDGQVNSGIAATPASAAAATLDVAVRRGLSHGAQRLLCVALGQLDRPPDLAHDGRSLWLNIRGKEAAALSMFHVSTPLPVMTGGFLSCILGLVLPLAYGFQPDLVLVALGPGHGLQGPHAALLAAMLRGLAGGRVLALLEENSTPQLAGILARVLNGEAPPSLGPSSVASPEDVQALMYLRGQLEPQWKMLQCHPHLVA", "experiment": "Inhibition of histone deacetylase isoforms, HDAC10", "quoted_text": "as §1"}, "[3]": {"biological_target": "HDAC4 (Homo sapiens, UniProt P56524)", "sequence (P56524 whole entry, canonical isoform)": "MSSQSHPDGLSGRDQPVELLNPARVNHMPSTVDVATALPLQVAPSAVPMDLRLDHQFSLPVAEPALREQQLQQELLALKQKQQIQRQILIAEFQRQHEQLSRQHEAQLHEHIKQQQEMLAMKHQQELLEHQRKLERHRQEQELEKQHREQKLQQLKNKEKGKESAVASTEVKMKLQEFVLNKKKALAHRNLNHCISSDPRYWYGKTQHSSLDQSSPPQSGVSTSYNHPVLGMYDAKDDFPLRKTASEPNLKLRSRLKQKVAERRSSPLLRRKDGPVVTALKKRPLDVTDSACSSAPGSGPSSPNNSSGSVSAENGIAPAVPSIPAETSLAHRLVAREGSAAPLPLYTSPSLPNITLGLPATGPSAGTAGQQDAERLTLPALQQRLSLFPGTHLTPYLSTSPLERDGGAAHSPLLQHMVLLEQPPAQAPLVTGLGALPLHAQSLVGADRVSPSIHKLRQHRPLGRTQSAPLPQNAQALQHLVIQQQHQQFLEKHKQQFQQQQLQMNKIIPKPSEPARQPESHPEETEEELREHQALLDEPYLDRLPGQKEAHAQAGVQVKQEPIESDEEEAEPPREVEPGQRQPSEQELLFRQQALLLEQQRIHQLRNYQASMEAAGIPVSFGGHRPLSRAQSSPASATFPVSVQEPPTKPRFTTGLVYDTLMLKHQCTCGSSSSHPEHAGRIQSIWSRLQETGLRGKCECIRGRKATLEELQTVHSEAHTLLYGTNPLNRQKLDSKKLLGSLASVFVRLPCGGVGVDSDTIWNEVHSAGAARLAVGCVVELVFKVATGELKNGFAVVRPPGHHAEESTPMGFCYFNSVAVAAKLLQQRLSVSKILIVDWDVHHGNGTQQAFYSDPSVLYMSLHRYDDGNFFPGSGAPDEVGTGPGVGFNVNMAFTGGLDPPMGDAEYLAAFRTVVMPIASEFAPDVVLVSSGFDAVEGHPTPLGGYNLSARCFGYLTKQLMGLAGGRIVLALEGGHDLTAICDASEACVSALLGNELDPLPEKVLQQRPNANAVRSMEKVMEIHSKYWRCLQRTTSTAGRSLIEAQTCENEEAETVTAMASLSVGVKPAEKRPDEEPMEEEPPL", "experiment": "Inhibition of histone deacetylase isoforms, HDAC4", "quoted_text": "as §1"}, "[4]": {"system": "HIV-1 expression in ACH-2 cells", "experiment": "Induction of the HIV-1 expression in the ACH-2 cell line (p24)", "format": "cell-based", "details": "24 hours", "procedure": "ACH2 cells were obtained through AIDS Research and Reference Reagent Program, Division of AIDS, National Institute of Allergy and Infectious Diseases, National Institutes of Health, Bethesda, Md. The cells were cultured in flasks, washed in RPMI and resuspended in RPMI/10% FCS at a concentration of 2×10^6 cells/mL. […] After 24 hours of incubation at 37° C./5% CO2, 50 μL of supernatant were removed for the cytotoxicity assay of the lactate dehydrogenase (LDH) and Triton-X-100 (0.5% vol/vol final concentration) were added to each culture. The p24 assays of the lysates were performed immediately.\np24 was measured using specific antibodies immobilized on magnetic beads as previously described [Nold M. F. et al. J. Immunol. […] The levels of p24 for each experiment without HDAC inhibitors were fixed at 1.0 and the increase values by the number of times for each experiment and each analogous were calculated."}, "[5]": {"details": "Monzani et al., EUROTOX 2007; cited from earlier work"}, "[6]": {"system": "bacteria", "details": "in vitro, Zolinza package leaflet; cited from earlier work"}, "[7]": {"system": "micronucleated erythrocytes", "details": "administered to mice, Zolinza package leaflet; cited from earlier work"}, "[8]": {"details": "400 mg/day, Zolinza package leaflet; cited from earlier work"}, "[9]": {"system": "latent HIV reservoir", "details": "combined with HAART, clinical studies; cited from earlier work"}}, "data": [{"smiles": "CCN(CC)Cc1ccc2cc(COC(=O)Nc3ccc(C(=O)NO)cc3)ccc2c1.Cl", "note": "[ITF2357, Diethyl-[6-(4-hydroxycarbamoyl-phenylcarbamoyloxymethyl)-naphtalen-2-yl-methyl]ammonium chloride]", "values": [{"measurement": "IC50", "setting": "[1]", "value": 518, "unit": "nM"}, {"measurement": "IC50", "setting": "[2]", "value": 351, "unit": "nM"}, {"measurement": "IC50", "setting": "[3]", "value": 724, "unit": "nM"}, {"measurement": "increase of the number of times in the level of p24 with respect to control", "setting": "[4]; 31 nM", "value": 1, "unit": "times"}, {"measurement": "increase of the number of times in the level of p24 with respect to control", "setting": "[4]; 63 nM", "value": 1, "unit": "times"}, {"measurement": "increase of the number of times in the level of p24 with respect to control", "setting": "[4]; 125 nM", "value": 2, "unit": "times"}, {"measurement": "increase of the number of times in the level of p24 with respect to control", "setting": "[4]; 250 nM", "value": 15, "unit": "times"}, {"measurement": "mutagenicity", "setting": "[5]", "value": "non-mutagenic"}]}, {"smiles": "O=C(CCCCCCC(=O)Nc1ccccc1)NO", "note": "[SAHA]", "values": [{"measurement": "mutagenicity in bacterial back-mutation assays (Ames test)", "setting": "[6]", "value": "mutagenic"}, {"measurement": "incidence of micronucleated erythrocytes", "setting": "[7]", "value": "increases the incidence of micronucleated erythrocytes"}, {"measurement": "adverse effects in patients", "setting": "[8]", "value": "numerous, serious adverse effects such as diarrhoea, tiredness, nausea, thrombocytopenia, anorexia and dysgeusia"}]}, {"smiles": "CCCC(CCC)C(=O)O", "note": "[VPA, Valproic acid]", "values": [{"measurement": "diminution of the latent reservoir", "setting": "[9]", "value": "without leading to any considerable diminution of the latent reservoir"}]}]}
